Experimental data reported in publication PMC7385556 (ACS chemical biology, 2020).
“And” between values parts separate entries of the source, which are not always exact repeats. Equal values may be shown once.

Test system: Mtb H37Rv mc^2 6230
Assay: MIC of compounds alone against Mtb H37Rv mc^2 6230
Format: cell-based, Mycobacterium tuberculosis
Settings: compound alone, absence of KAN

NC[C@H]1O[C@H](O[C@H]2[C@H](O)[C@@H](O[C@H]3O[C@H](CO)[C@@H](O)[C@H](N)[C@H]3O)[C@H](N)C[C@@H]2N)[C@H](O)[C@@H](O)[C@@H]1O [KAN, kanamycin]
H37Rv mc^2 6230 MIC: <1 μg/mL and <1.72 μM
